In article PMC8694169 (Microbiology Spectrum, 2021):
Where two headings read alike, the source gives them in different places. Where a SMILES comes first, the peptide text is derived from it. Where no end group is shown, it is not given here.

Key:
[1] = system: IFN-γ-producing CD8+ T cells; test: Intracellular IFN-γ staining (ICS) of spleen CD8+ T cells after immunization with liposomal peptides; assay type: in vivo, HLA-A*24:02 transgenic mice; settings: mice immunized with liposomal peptides + CpG; result in words
[2] = biological target: T1, HLA-A*24:02 (Homo sapiens, UniProt P04439, D101N/D140Y/D185E/E176V/E190D/F33S/G103R/G107R/I119L/I121M/I306V/K335N/L105A/L180Q/L300P/N151K/N90K/Q86E/Q94H/R106L/R138H/R89G/T104I/T345S/V100E/W191G/Y123F); test: cell-based; assay type: binding
[3] = system: human lymphocytes; settings: epitopes of same sequence submitted as HLA-A*24:02-restricted pp1a-specific CTL epitopes; ref Virus Pathogen Database and Analysis Resource; cited from earlier work
[4] = biological target: T1, HLA-A*24:02; settings: ref Virus Pathogen Database and Analysis Resource; cited from earlier work
[5] = system: IFN-γ+ CD8+ T cells; test: Comparison of conserved top 4 peptides, ICS after immunization with 4-peptide mixture in liposomes; assay type: in vivo, HLA-A*24:02 transgenic mice; settings: eight mice immunized with mixture of pp1a-1417, -3104, -3792, -4229 in liposomes with CpG; spleen cells + peptide 5 h; one-way ANOVA; Fig. 5A
[6] = system: CD107a+ CD8+ T cells; test: Comparison of conserved top 4 peptides, CD107a on CD8+ T cells; assay type: in vivo, HLA-A*24:02 transgenic mice; settings: eight mice immunized with 4-peptide mixture in liposomes with CpG; spleen cells + 50 μM peptide 6 h; one-way ANOVA; Fig. 5B
[7] = […], mean ± SD, triplicate, repeated twice, ND = not detected, read-out: BL50 (half-maximal binding level, peptide concentration that yields 50% relative binding)

Row | Compound | detection of IFN-γ-producing CD8+ T cells in immunized mice [1] | EC50 [2, 7] [µM] | other results
1 | CC(C)C[C@H](NC(=O)[C@H](CC(C)C)NC(=O)[C@H](CS)NC(=O)[C@H](Cc1ccccc1)NC(=O)[C@H](CC(C)C)NC(=O)CNC(=O)[C@H](Cc1ccccc1)NC(=O)[C@H](Cc1ccc(O)cc1)NC(=O)[C@@H](N)CS)C(=O)O [pp1a-3792] (H-CYFGLFCLL-OH; N-terminus and C-terminus assumed) | significant numbers | – | –
2 | AFEKMVSLL [pp1a-3907] | – | 114 ± 3.1 | –
3 | AFGLVAEWF [pp1a-2320] | – | 135 ± 39.1 | –
4 | AFLPFAMGI [pp1a-3610] | – | 183 ± 8.2 | –
5 | AFVETVKGL [pp1a-486] | – | 278 ± 49.8 | –
6 | AFYILPSII [pp1a-1352] | – | 64.4 ± 9.2 | –
7 | AYILFTRFF [pp1a-2330] | significant numbers | 0.8 ± 0.1 | result in T cell assays using human lymphocytes [3]: positive
8 | DFVKATCEF [pp1a-335] | – | 127 ± 3.8 | –
9 | DYGARFYFY [pp1a-1417] | significant numbers | 16.1 ± 0.8 | –
10 | DYKHYTPSF [pp1a-1971] | – | 58.4 ± 11.7 | –
11 | DYLVSTQEF [pp1a-3812] | – | – | EC50 ([2]; SD): 0.9 ± 0.1 µM
12 | DYQGKPLEF [pp1a-954] | – | 126 ± 23.9 | –
13 | FFSYFAVHF [pp1a-2350] | significant numbers | 1.4 ± 0.1 | –
14 | FYENAFLPF [pp1a-3606] | significant numbers | 0.02 ± 0.01 | –
15 | FYLTNDVSF [pp1a-3114] | significant numbers | 0.01 | result in the binding assay [4]: positive; result in T cell assays using human lymphocytes [3]: negative
16 | FYVLGLAAI [pp1a-2338] | significant numbers | 0.7 ± 0.1 | –
17 | FYWFFSNYL [pp1a-3153] | significant numbers | 3.9 ± 1.3 | –
18 | GYKSVNITF [pp1a-835] | significant numbers | 0.1 | –
19 | GYVTHGLNL [pp1a-1451] | – | 109 ± 8.9 | –
20 | IFGTVYEKL [pp1a-616] | – | 122 ± 18 | –
21 | IYLYLTFYL [pp1a-3108] | – | 100 ± 13.8 | –

Row | Compound | detection of IFN-γ-producing CD8+ T cells in immunized mice [1] | EC50 [2, 7] [µM] | other results
22 | KFKEGVEFL [pp1a-634] | significant numbers | 79.6 ± 6.6 | –
23 | KFLTENLLL [pp1a-1247] | – | 33.4 ± 1.9 | –
24 | KFVCDNIKF [pp1a-1929] | – | 61.7 ± 1.6 | –
25 | KYLYFIKGL [pp1a-4226] | – | – | EC50 ([2]; SD): 109 ± 1.3 µM
26 | LFLMSFTVL [pp1a-3084] | – | 100 ± 7.6 | –
27 | LFVAAIFYL [pp1a-2781] | – | 183 ± 8.2 | –
28 | LYCIDGALL [pp1a-1845] | significant numbers | 38.5 ± 8.2 | –
29 | LYDKLVSSF [pp1a-1182] | significant numbers | 1 ± 0.3 | result in T cell assays using human lymphocytes [3]: positive
30 | LYIDINGNL [pp1a-1255] | significant numbers | 40.4 ± 8.6 | –
31 | MFDAYVNTF [pp1a-2590] | significant numbers | 7.7 ± 0.6 | –
32 | MFLARGIVF [pp1a-3752] | significant numbers | 24.2 ± 1.5 | –
33 | MFTPLIQPI [pp1a-3030] | – | 251 ± 88.7 | –
34 | MFVKHKHAF [pp1a-3627] | – | 241 ± 33.6 | –
35 | MYASAVVLL [pp1a-3684] | significant numbers | 0.4 ± 0.1 | result in the binding assay [4]: positive; result in T cell assays using human lymphocytes [3]: negative
36 | NFNQHEVLL [pp1a-1137] | – | 55.3 ± 2 | –
37 | NFSKLINII [pp1a-2222] | – | 181 ± 32.5 | –
38 | NFTIKGSFL [pp1a-3396] | – | 134 ± 7.6 | –
39 | NYLKRRVVF [pp1a-3159] | – | 114 ± 5.3 | –
40 | PFWITIAYI [pp1a-3137] | – | 103 ± 8.4 | –
41 | PYCYDTNVL [pp1a-2931] | – | 6.8 ± 1 | –
42 | QYELKHGTF [pp1a-1813] | – | 141 ± 8 | –

Row | Compound | detection of IFN-γ-producing CD8+ T cells in immunized mice [1] | EC50 [2, 7] [µM] | other results
43 | QYGRSGETL [pp1a-96] | – | 124 ± 10.9 | –
44 | SYGADLKSF [pp1a-135] | – | 104 ± 17.7 | –
45 | SYLFQHANL [pp1a-1733] | – | 3 ± 0.4 | –
46 | SYSGQSTQL [pp1a-1515] | – | 45.8 ± 10.5 | –
47 | TFCAGSTFI [pp1a-2457] | – | 127 ± 20.2 | –
48 | TFDNLKTLL [pp1a-1552] | – | 96.1 ± 1.6 | –
49 | TFFKLVNKF [pp1a-677] | – | 55.9 ± 3.3 | –
50 | TFHLDGEVI [pp1a-1543] | – | 100 ± 6.8 | –
51 | TFNGECPNF [pp1a-265] | significant numbers | 1.7 ± 0.4 | result in T cell assays using human lymphocytes [3]: positive
52 | VFLFVAAIF [pp1a-2779] | significant numbers | 8.6 ± 0.4 | –
53 | VYEKLKPVL [pp1a-620] | – | 264 ± 21.4 | –
54 | VYSVIYLYL [pp1a-3104] | significant numbers | 0.5 | result in the binding assay [4]: positive; dominance in induction of peptide-specific IFN-γ+ CD8+ T cells among conserved top 4 peptides [5]: far superior to all other peptides; result in T cell assays using human lymphocytes [3]: negative; dominance in CD107a induction of CD8+ T cells among conserved top 4 peptides [6]: statistically predominant over pp1a-1417 and -4229
55 | WFLLLSVCL [pp1a-2232] | – | 279 ± 12.6 | –
56 | YFIKGLNNL [pp1a-4229] | significant numbers | 32.1 ± 1.9 | –
57 | YFTEQPIDL [pp1a-1906] | – | 113 ± 9.4 | –
58 | YYHTTDPSF [pp1a-1634] | – | 0.04 | –
59 | YYKKDNSYF [pp1a-1899] | significant numbers | 0.3 | result in T cell assays using human lymphocytes [3]: positive
60 | YYRSLPGVF [pp1a-3010] | – | 122 ± 18.8 | –
61 | YYTSNPTTF [pp1a-1536] | – | 0.05 | –
